Measurements published in patent publication US20010052137A1, “Axin domain-like polypeptide inhibitors of glycogen synthase kinase 3 beta activity and activators of wnt signaling” (Trustees of the University of Pennsylvania, priority 2000, published 2001).
Ends that are not written are not given here.

What was measured:
GSK-3 beta [1] = test: In ovo tau phosphorylation assay: GSK-3 beta and Xaxin constructs co-expressed in Xenopus oocytes; format: cell-based; conditions: construct co-expressed with GSK-3 beta in Xenopus oocytes; tau microinjected; PHF-1 immunoblot
Description: Stage VI Xenopus oocytes were isolated by collagenase treatment (Smith et al., 1994, Meth. Cell Biol. 36:45-58) and were injected with mRNA prepared by in vitro transcription (mMessage Machine™; Ambion, Austin, Tex.). 10 nanoliters of mRNA (containing 1-2 nanograms per nanoliter) was injected for each construct (unless otherwise specified), and the injected oocytes were incubated for 16 hours at 18° C. To analyze the effects of Xaxin constructs on dorsal-ventral pattern formation, Xenopus embryos were injected with 10 nanoliters of mRNA (0.1-0.2 nanogram per nanoliter) into one dorsal or ventral cell of a 4 cell embryo and dorsal axes were assessed at the tadpole stage. For Xaxin co-immunoprecipitation, fertilized eggs were injected with 10 nanoliters of Xaxin tagged with Myc, with hemagglutinin, or with both Myc and hemagglutinin (1 nanogram per nanoliter) and harvested at the blastula stage (stage 8).
In ovo phosphorylation of tau by GSK-3 beta was performed by microinjection of tau protein into oocytes expressing GSK-3 beta and Xaxin constructs. After 90 minutes, oocytes were homogenized and tau phosphorylation was analyzed in western blots using phospho-specific antibodies as described (Hedgepeth et al., 1997, Develop. Biol. 185:82-91). In vitro assays for GSK-3 beta activity were performed as described (Klein et al., 1996, Proc. Natl. Acad. Sci. USA 93:8455-8459). Recombinant GID-2/his protein (described below) was purified by affinity chromatography and added to in vitro assays at selected concentrations. […]
GSK-3 beta was expressed in oocytes together with Myc-tagged full length Xaxin or with the amino-terminal (amino acid residues 63-288), GID-1 (amino acid residues 277-545), or carboxyl-terminal (amino acid residues 429-713) fragments of Xaxin, as depicted in FIG. 1A. Purified tau protein was then microinjected into the oocytes, and phosphorylation of tau was measured by immunoblotting using antibody PHF-1 or with antibodies that detect all (i.e. phosphorylated and non-phosphorylated) forms of tau. […]

GSK-3 beta [2] = test: Co-immunoprecipitation of GSK-3 beta with Myc-tagged Xaxin constructs in Xenopus oocytes; format: binding; conditions: Myc-tagged construct co-expressed with GSK-3 beta in Xenopus oocytes; anti-Myc IP, anti-GSK-3 beta blot
[3] = tested on: LEF-1 dependent transcription (wnt signaling); test: LEF-luciferase reporter of wnt signaling in 293T cells; format: cell-based; conditions: at 37°
Description: LEF-1 (also designated tcf) is a DNA-binding protein that also binds with beta-catenin. The beta-catenin/LEF-1 complex is known to activate transcription of wnt target genes. A genetic construct was made which comprised this LEF-1-binding promoter operably linked with a luciferase gene, for use as a reporter of wnt signaling.
Single plasmids encoding individual GID fragments were transfected into 293T cells, together with the LEF-luciferase reporter, and luciferase activity was measured after 24 hours. GID fragments induced up to 100- to 250-fold activation of LEF-luciferase (normalized to activity from the mutated LEF-reporter control, which was activated less than 2-fold).

| Substance | GSK-3 beta-mediated tau phosphorylation (GSK-3 beta activity) (GSK-3 beta [1]) | binding with GSK-3 beta (co-immunoprecipitation) (GSK-3 beta [2]) | reduction of activity in LEF-luciferase assay compared to wild-type [3] |
| --- | --- | --- | --- |
| GID-3: Myc-tagged fragment, Xaxin amino acid residues 320-375 (DSEQQSMSSDADTMSLTDSSVDGIPPYRLRKHYRREMQESANANGRGPLPHIPRTY; also: Myc-tagged fragment) | no effect | did not bind |  |
| GID-6: Myc-tagged fragment, Xaxin amino acid residues 380-404 (SEQ ID NO: 1) (DIHVDPEKFAAELISRLEGVLRDRE; also: Myc tag) | inhibited | bound |  |
| GID-5: Myc-tagged fragment, Xaxin amino acid residues 380-429 (DIHVDPEKFAAELISRLEGVLRDREAEQKLEERLKRVRAEEEGDDGDVSS; also: Myc-tagged fragment) | inhibited | bound |  |
| GID5-6FY: GID mutant in which phenylalanine-388 is replaced with a tyrosine residue (DIHVDPEKYAAELISRLEGVLRDRE) |  |  | approximately 10 fold |
